Results from patent US9937217B2, “Method of inhibiting ABCG2 and related treatments” (The United States of America, as represented by the …, priority 2007, dated 2018).
“And” between values parts separate entries of the source, which are not always exact repeats. Equal entries are not always repeated. Where two headings read alike, the source gives them in different places.

Tests used:
ABCG2 [1] = target: T1, ABCG2 (Homo sapiens, UniProt Q9UNQ0); test: Pheophorbide a (PhA) accumulation screening assay; type: cell-based
T1 sequence (Q9UNQ0 1-655): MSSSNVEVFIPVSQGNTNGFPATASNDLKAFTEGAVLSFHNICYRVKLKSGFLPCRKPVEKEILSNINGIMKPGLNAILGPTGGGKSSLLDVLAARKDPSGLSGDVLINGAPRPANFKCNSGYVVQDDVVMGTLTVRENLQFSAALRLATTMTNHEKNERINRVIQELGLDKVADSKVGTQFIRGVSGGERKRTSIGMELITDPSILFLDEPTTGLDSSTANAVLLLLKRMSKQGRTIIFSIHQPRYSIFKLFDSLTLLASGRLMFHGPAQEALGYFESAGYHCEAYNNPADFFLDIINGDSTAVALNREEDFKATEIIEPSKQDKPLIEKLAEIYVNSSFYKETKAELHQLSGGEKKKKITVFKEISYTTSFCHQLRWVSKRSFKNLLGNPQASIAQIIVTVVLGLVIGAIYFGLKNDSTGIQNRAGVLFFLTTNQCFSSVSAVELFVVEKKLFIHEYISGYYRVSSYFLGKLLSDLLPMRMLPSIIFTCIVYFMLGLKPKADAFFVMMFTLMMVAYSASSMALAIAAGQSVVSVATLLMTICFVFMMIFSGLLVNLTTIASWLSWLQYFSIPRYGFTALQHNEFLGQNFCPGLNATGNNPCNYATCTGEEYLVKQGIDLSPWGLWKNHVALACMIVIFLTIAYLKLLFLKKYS
Description: (§1) To prepare the cell culture, NCI-H460 human lung non-small-cell carcinoma cells (National Cancer Institute, Frederick, Md.) are selected for over-expression of ABCG2 by maintenance in RPMI1640/10% FBS supplemented with 20 nM mitoxantrone (Robey et al., Biochim. Biophys. Acta, 1512: 171-82 (2001)). After removal of mitoxantrone, cells are further grown in the same medium without mitoxantrone for 5-30 days. These cells are designated NCI-H460/MX20. Parental cells (low ABCG2 expression) (Robey et al., vide supra) are maintained in the same medium without mitoxantrone. ABCG2-transfected or MDR1-transfected (i.e. Pgp-expressing) HEK293 cells are maintained in 2 mg/ml G418 as previously described (Robey et al., Br. J. Cancer, 89: 1971-8 (2003)). MRP1-transfected HEK293 cells are maintained in 5 μM etoposide. MCF-7 FLV1000 cells are maintained in Richter's medium with 10% FCS and Pen/strep with 1000 nM flavopiridol (Robey et al., Clin. Cancer Res., 7: 145-52 (2001)).
Accumulation of pheophorbide a, a fluorescent ABCG2 substrate (Jonker et al., Proc. Natl. Acad. Sci. USA, 99: 15649-54 (2002) and Robey et al., Cancer Res., 64: 1242-6 (2004)), formed the basis of the assay for inhibitors of ABCG2 activity (Henrich et al., J. Biomol. Screen, 11: 176-83 (2006)). Briefly, NCI-H460/MX20 cells are transferred to black wall, clear bottom 384-well polylysine-coated assay plates (Corning, Corning, N.Y.) and allowed to attach for several hours. Pheophorbide a (1 μM final concentration) is added immediately followed by compounds or vehicle (DMSO/PBS) control and incubated an additional 18 h. After removal of medium and washing with PBS containing Ca^2+ and Mg^2+, fluorescence intensity is read on a Tecan Safire fluorescence plate reader in bottom read mode, 395 nm excitation, 670 nm emission. Each plate has control wells containing 10 μM (final concentration) FTC. Data are normalized to FTC and reported as % of FTC fluorescence.

NCI-H460/MX20 cells = test: Sensitization of ABCG2-overexpressing cells to killing by mitoxantrone (XTT assay); type: cell-based, human; conditions: for MX sensitization: % NCI-H460/MX20 cell survival in the presence of compound and mitoxantrone: 10 μM compound
Description: After removal of mitoxantrone, cells are further grown in the same medium without mitoxantrone for 5-30 days. These cells are designated NCI-H460/MX20. Parental cells (low ABCG2 expression) (Robey et al., vide supra) are maintained in the same medium without mitoxantrone. […] MRP1-transfected HEK293 cells are maintained in 5 μM etoposide.
Final DMSO concentration is 0.2% (v/v).

ABCG2 [2] = target: T1, ABCG2; test: BODIPY-prazosin efflux, ABCG2-transfected HEK293 cells (flow cytometry); conditions: 10 μM compound
Description: (§2) APC fluorescence is measured with a 635 nm read diode laser and 561 nm longpass filter. At least 10000 events are collected. Dead cells are eliminated based on propidium iodide exclusion.
(§3) Cells are then washed and incubated in substrate-free medium continuing with or without inhibitor for 1 h.

ABCG2 [3] = target: T1, ABCG2; type: cell-based; conditions: compound, ABCG2-transfected HEK293
Description: At least 10000 events are collected. Dead cells are eliminated based on propidium iodide exclusion.
Five compounds are examined for their ability to increase surface staining of the 5D3 antibody.
The 5D3 shift assay is performed as described by Ozvegy-Laczka et al. with minor modifications. […] Cells are subsequently washed and incubated with APC-labeled goat anti-mouse secondary antibody (1:35) for 30 min after which the cells are washed and analyzed.

ABCG2 [4] = target: T1, ABCG2; test: Photoaffinity labeling of ABCG2 with [125I]-IAAP in MCF-7 FLV1000 membranes; type: binding; conditions: 20 μM compound; for activity at 10 min, 20 µM: human, crude membranes of MCF-7 FLV1000 cells expressing ABCG2, pH 7.5, probe [125I]-IAAP, 3-6 nM (2200 Ci/mmole), read-out: Blocking of 125I-IAAP binding: % of control binding
Description: ABCG2 expressed in MCF-7 FLV1000 cells is photo-labeled with [^125I]-IAAP as described previously (Shukla et al., Biochemistry, 45: 8940-51 (2006)). Briefly, crude membranes (1 mg protein/me of MCF-7 FLV1000 cells are incubated with 20 μM of the indicated compound for 10 min at room temperature in 50 mM Tris-HCl, pH 7.5. 3-6 nM [^125I]-IAAP (2200 Ci/mmole) (PerkinElmer Life Sciences, Wellesley, Mass.) is added, and the samples are incubated for an additional 5 min under subdued light. The samples are then exposed to ultraviolet (UV, 365 nm) light for 10 min, and the labeled ABCG2 is immunoprecipitated using BXP-21 antibody. The radioactivity incorporated into the ABCG2 band is quantified using the STORM 860 PhosphorImager system (Molecular Dynamics, Sunnyvale, Calif.) and ImageQuaNT software (Molecular Dynamics).

Pgp = Pgp (Homo sapiens, UniProt P08183)
Chain of Pgp (P08183 whole entry): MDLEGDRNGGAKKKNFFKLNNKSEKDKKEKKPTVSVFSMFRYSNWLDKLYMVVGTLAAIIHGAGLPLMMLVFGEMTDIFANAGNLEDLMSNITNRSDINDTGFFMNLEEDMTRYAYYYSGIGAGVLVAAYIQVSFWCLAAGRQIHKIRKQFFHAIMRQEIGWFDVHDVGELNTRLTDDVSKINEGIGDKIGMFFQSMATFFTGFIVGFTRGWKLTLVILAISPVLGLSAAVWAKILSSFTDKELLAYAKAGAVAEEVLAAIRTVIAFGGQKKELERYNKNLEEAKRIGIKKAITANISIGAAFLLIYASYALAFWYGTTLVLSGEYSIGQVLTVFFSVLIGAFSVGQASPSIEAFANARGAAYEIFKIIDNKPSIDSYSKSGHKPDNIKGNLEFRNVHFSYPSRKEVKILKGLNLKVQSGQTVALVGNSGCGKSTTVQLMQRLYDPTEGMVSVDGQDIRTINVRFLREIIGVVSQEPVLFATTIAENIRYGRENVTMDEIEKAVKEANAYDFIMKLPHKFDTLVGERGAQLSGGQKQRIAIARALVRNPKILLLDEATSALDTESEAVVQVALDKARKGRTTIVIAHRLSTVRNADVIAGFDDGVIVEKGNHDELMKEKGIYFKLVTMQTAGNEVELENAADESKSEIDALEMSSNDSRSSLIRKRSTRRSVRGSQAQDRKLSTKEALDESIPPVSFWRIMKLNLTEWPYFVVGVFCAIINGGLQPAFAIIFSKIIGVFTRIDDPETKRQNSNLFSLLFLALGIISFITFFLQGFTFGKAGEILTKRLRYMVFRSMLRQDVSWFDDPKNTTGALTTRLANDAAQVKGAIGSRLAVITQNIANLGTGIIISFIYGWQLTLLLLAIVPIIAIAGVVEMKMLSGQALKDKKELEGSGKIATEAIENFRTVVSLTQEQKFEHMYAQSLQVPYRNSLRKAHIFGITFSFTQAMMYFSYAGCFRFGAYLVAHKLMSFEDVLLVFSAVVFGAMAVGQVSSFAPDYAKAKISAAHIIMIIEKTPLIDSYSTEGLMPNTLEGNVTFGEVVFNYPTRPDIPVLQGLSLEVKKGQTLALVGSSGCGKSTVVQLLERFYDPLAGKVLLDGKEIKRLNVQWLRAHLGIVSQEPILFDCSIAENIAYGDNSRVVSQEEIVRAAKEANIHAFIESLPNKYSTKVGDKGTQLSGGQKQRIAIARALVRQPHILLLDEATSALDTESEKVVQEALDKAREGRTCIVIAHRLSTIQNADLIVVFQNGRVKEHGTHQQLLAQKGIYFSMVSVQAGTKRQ
Description: as §2, §3

MRP1 = target: T2, MRP1 (Homo sapiens, UniProt P33527); test: Calcein efflux, MRP1-transfected HEK293 cells (flow cytometry); type: cell-based; conditions: 10 μM compound
T2 construct: expressed in transfected cells; host or cells: HEK293
T2 sequence (P33527 whole entry): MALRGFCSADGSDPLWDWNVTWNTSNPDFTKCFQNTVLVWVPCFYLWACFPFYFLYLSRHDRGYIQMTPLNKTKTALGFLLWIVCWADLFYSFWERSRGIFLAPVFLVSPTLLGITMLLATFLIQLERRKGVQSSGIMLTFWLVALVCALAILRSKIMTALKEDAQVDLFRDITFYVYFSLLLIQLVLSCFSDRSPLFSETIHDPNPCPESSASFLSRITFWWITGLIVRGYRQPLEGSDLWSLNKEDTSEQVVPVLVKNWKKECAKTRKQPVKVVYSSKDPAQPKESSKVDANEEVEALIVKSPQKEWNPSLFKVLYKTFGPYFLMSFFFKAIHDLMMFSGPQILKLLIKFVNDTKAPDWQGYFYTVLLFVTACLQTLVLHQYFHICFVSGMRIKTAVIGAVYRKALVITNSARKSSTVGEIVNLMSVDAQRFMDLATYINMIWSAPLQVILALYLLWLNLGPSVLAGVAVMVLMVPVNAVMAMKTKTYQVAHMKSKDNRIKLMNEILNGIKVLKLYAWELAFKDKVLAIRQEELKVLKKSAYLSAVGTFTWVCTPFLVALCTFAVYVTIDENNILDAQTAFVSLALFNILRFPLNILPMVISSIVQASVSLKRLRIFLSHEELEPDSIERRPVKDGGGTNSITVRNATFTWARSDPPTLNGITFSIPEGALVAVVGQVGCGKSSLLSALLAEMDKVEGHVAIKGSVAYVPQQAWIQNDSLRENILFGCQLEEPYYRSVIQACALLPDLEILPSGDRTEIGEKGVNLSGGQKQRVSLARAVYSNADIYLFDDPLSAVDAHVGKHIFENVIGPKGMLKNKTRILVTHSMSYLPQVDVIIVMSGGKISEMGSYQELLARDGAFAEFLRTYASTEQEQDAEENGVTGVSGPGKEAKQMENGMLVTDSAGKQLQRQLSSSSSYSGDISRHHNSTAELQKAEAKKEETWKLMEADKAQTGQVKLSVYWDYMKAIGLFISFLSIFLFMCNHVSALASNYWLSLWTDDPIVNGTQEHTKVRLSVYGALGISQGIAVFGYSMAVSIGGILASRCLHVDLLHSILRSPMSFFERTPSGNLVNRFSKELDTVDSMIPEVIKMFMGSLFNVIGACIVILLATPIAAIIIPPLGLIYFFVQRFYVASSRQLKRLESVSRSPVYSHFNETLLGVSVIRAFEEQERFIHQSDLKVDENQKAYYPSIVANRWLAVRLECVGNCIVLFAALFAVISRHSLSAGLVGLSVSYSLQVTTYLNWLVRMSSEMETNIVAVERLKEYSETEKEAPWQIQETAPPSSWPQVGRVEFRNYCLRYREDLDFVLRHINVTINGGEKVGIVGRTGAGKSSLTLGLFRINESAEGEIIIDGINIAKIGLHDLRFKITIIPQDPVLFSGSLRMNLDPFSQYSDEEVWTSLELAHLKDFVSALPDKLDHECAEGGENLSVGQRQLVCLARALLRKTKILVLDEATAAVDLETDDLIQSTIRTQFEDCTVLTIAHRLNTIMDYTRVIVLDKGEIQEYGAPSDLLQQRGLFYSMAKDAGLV
Description: as §2, §3

ABCG2 [5] = target: T1, ABCG2; conditions: NCI-H460/MX20 cells; Henrich et al., 2006; read-out: Pheophorbide a IC50 for FTC; cited from earlier work
NCI-H460 cells = test: Mitoxantrone / compound cytotoxicity in parental cells (XTT assay); type: cell-based; conditions: Homo sapiens, 48 h; unselected NCI-H460 cells, 30 μM mitoxantrone, 2 days, (sd); read-out: Cell numbers, % of control (vehicle), mitoxantrone alone
Description: as §1
The ability of compounds to sensitize NCI-H460/MX20 cells to killing by mitoxantrone is assessed as described in Henrich et al. (J. Biomol. Screen, 11: 176-83 (2006)). ABCG2 over-expressing cells or parental cells are treated with mitoxantrone in the presence or absence of 10 μM compound (or 1 μM FTC) and cell numbers assessed after 2 d by an XTT assay (Scudiero et al., Cancer Res., 48: 4827-33 (1988)). […]

[6] = NCI-H460/MX20 cells, PhA accumulation, read-out: Pheophorbide a IC50

Row | Pheophorbide a total, % of FTC response (ABCG2 [1]; human, 18 h, 10 µM) [%] | BODIPY-prazosin efflux: treated/control ratio (ABCG2 [2]) | 5D3 staining: treated/control ratio (ABCG2 [3]) | activity at 10 min, 20 µM (ABCG2 [4]) [%] | Pgp inhibition, rhodamine efflux: treated/control ratio (Pgp; human, 10 µM) | MRP1 inhibition, calcein efflux: treated/control ratio (MRP1) | IC50 (ABCG2 [1]; [6]) [µM] | Pgp inhibition, rhodamine efflux: treated/control ratio (Pgp; valspodar 3 μg/mL, positive control) | SMILES | IC50 (ABCG2 [1]) [µM] | MX sensitization: % NCI-H460/MX20 cell survival in the presence of compound and mitoxantrone (NCI-H460/MX20 cells; 30 μM mitoxantrone, 2 d) [%] | Pheophorbide a total, % of FTC response (ABCG2 [1]; 10 μM compound, NCI-H460/MX20 cells, normalized to 10 μM FTC) [%] | MX sensitization: % NCI-H460/MX20 cell survival in the presence of FTC and mitoxantrone (NCI-H460/MX20 cells; 1 μM FTC, 30 μM mitoxantrone, 2 d) | Blocking of 125I-IAAP binding: % of control binding (ABCG2 [4]) [%] | IC50 (ABCG2 [5]) [µM] | Cell number, % of control, mitoxantrone alone (NCI-H460/MX20 cells; NCI-H460/MX20 cells, mitoxantrone treatment, (sd)) [%] | activity at 30 µM (NCI-H460 cells) [%]
1 | 67.2 | 2.0 | 3.7 | 19.1 | 0.84 | 0.81 | 4.3 |  | O=C(O)c1ccc(/C=N/N=C2c3ccccc3-c3ccccc32)cc1 [NSC120688] |  | 20.9 |  |  |  |  |  | 
2 | 104.5 | 2.6 | 3.7 | 34.2 | 0.64 | 0.81 | 3.9 |  | COc1cc2c[n+](C)c3c4cc(OC)c(OC)cc4ccc3c2cc1OC [NSC168201] |  | 21.2 |  |  |  |  |  | 
3 |  |  |  |  |  |  |  | 14.9 | C/C=C/C[C@@H](C)C(=O)[C@H]1C(=O)N[C@@H](C(C)C)C(=O)N(C)CC(=O)N(C)[C@@H](CC(C)C)C(=O)N[C@@H](C(C)C)C(=O)N(C)[C@@H](CC(C)C)C(=O)N[C@@H](C)C(=O)N[C@H](C)C(=O)N(C)[C@@H](CC(C)C)C(=O)N(C)[C@@H](CC(C)C)C(=O)N(C)[C@@H](C(C)C)C(=O)N1C [valspodar, reference compound] |  |  |  |  |  |  |  | 
4 | 76.6 | 3.5 | 3.6 | 33.5 | 0.77 | 1.3 | 2.6 |  | Cn1ncc2c(NCCc3ccccc3)nc(Cl)nc21 [NSC19139] |  | 30.0 |  |  |  |  |  | 
5 | 63.8 | 3.6 | 3.2 | 48.7 | 0.84 | 1.8 |  |  | Cc1cc(O)nc2cc3oc4ccccc4c3cc12 [NSC375985] | 3.7 | 27.6 |  |  |  |  |  | 
6 |  |  |  |  |  |  |  |  | O=C1c2c(O)ccc(O)c2C(=O)c2c(NCCNCCO)ccc(NCCNCCO)c21 [mitoxantrone, reference compound] |  |  |  |  |  |  | 56.1±2.1 | 21.6 ± 1.6

Row | SMILES | Pheophorbide a total, % of FTC response (ABCG2 [1]; human, 18 h, 10 µM) [%] | BODIPY-prazosin efflux: treated/control ratio (ABCG2 [2]) | 5D3 staining: treated/control ratio (ABCG2 [3]) | activity at 10 min, 20 µM (ABCG2 [4]) [%] | Pgp inhibition, rhodamine efflux: treated/control ratio (Pgp; human, 10 µM) | MRP1 inhibition, calcein efflux: treated/control ratio (MRP1) | IC50 (ABCG2 [1]; [6]) [µM] | Pgp inhibition, rhodamine efflux: treated/control ratio (Pgp; valspodar 3 μg/mL, positive control) | IC50 (ABCG2 [1]) [µM] | MX sensitization: % NCI-H460/MX20 cell survival in the presence of compound and mitoxantrone (NCI-H460/MX20 cells; 30 μM mitoxantrone, 2 d) [%] | Pheophorbide a total, % of FTC response (ABCG2 [1]; 10 μM compound, NCI-H460/MX20 cells, normalized to 10 μM FTC) [%] | MX sensitization: % NCI-H460/MX20 cell survival in the presence of FTC and mitoxantrone (NCI-H460/MX20 cells; 1 μM FTC, 30 μM mitoxantrone, 2 d) | Blocking of 125I-IAAP binding: % of control binding (ABCG2 [4]) [%] | IC50 (ABCG2 [5]) [µM] | Cell number, % of control, mitoxantrone alone (NCI-H460/MX20 cells; NCI-H460/MX20 cells, mitoxantrone treatment, (sd)) [%] | activity at 30 µM (NCI-H460 cells) [%]
7 | Cn1ncc2c(Nc3cccc(Cl)c3)nc(Nc3cccc(Cl)c3)nc21 [NSC11668] | 84.1 | 5.9 | 4.0 | 24.6 | 0.73 | 1.2 |  |  | 4.5 | 21.9 |  |  |  |  |  | 
8 | COc1ccc2c3c([nH]c2c1)[C@H](C=C(C)C)N1C(=O)[C@@H]2CCCN2C(=O)[C@@H]1C3 [FTC, fumitremorgin C, reference compound] |  | 3.5 | 3.7 |  |  |  |  |  |  |  | 100 | 24.5±1.5% and 24.5% | 32.7 | 0.8 |  | 
